Results on three molecules are retold here after patent US20240208932A1, “ARYLAMINO DERIVATIVE ESTROGEN RECEPTOR MODULATOR AND USE THEREOF” (XIZANG HAISCO PHARMACEUTICAL CO., LTD., priority 2021, published 2024).

Test [1] concerns the target ERα (Homo sapiens (Human), UniProt P03372). As to the kind of experiment: Degradation effect of compounds on ERα in MCF-7 and CAMA-1 cells (automated western blot, 24 h). Format: cell-based. To be noted: ERα degradation in MCF-7 cells; for DC50: 24 hours; for Dmax at 0.1 µM: MCF7, @100 nM. As for the experimental part: 2. Degradation Effect of Compounds on ERα in MCF-7 and CAMA-1 Cells
Breast cancer cells MCF-7 and CAMA-1 were purchased from ATCC, the cell media were all EMEM+10% FBS, and the cells were cultured in an incubator at 37° C. under 5% CO2. On the first day, the cells in an exponential phase were collected. With a 10% css-FBS phenol red-free medium, the cell suspension was adjusted to a corresponding concentration, plated at 300000 cells/well and incubated for 3 days. After 3 days, the liquid in the well was aspirated, and a 10% css-FBS phenol red-free medium containing the compound to be tested was added and cultured in an incubator at 37° C. under 5% CO2. After 24 hours, 60 μl of RIPA lysis solution (containing 1× protease inhibitor cocktail) was added to each well, lysed on ice for 15 minutes, and then centrifuged at 4° C. for 10 minutes at 12000 g. The supernatant protein samples were collected, and protein quantification was performed by a BCA method. ERα was detected using fully automatic protein expression quantitative analysis, which involved diluting the protein to be tested to 1.5 mg/mL. 4 μL of the diluted protein samples were added to 1 μL of 5×Master Mix (provided in the kit), and the prepared samples were denatured at 95° C. for 5 min and placed on ice for use. Antibody Diluent II (provided in the kit) was used to dilute the primary antibody, in which the dilution ratios of ERα (CST, 13258S) and β-actin (CST, 3700) antibodies were 1:40 and 1:500, respectively, the secondary antibody was a 1:1 mixture of goat anti-mouse and goat anti-rabbit secondary antibodies, and the chromogenic solution was a 1:1 mixture of Lumino-S and Peroxide. The prepared reagents were successively added to an assay plate according to instructions of the kit and detected on an instrument. Western blot band processing was performed using “Compass for SW”, a fully automatic protein expression quantitative analysis software, in which western blot bands were automatically simulated based on signal values. The proportion of ERα relative to the solvent control at different drug concentrations according to equation (1), wherein Acompound was the relative peak area of ERα in the treated group, and Asolvent was the relative peak area of ERα in the solvent control group.
ERα%=Acompound/Asolvent×100 equation (1)
DC50 calculation: Calculation was performed according to equation (1), and using Graphpad Prism 8.0 software, the compound concentration DC50 values at which the degradation rate of ERα was 50% were calculated using a non-linear four-parameter function (Non linear regression (curve fit)) (Table 1).

In test [2] the target is CYP2C19 (Homo sapiens (Human), UniProt P33261). Description: CYP450 enzyme inhibition test, human liver microsomes. Format: in vitro ADME. To be noted: incubation concentration 0-50/100 μM. As for the experimental part:
6. CYP450 Enzyme Inhibition Test
The purpose of this study was to evaluate the effect of the test compound on the activity of five isoenzymes (CYP1A2, CYP2C9, CYP2C19, CYP2D6 and CYP3A4) of human liver microsomal cytochrome P450 (CYP) by using an in vitro testing system. The specific probe substrates of CYP450 isoenzymes were incubated with human liver microsomes and test compounds of different concentrations, and reduced nicotinamide adenine dinucleotide phosphate (NADPH) was added to initiate the reaction. After the completion of the reaction, the sample was treated and liquid chromatography-tandem mass spectrometry (LC-MS/MS) was used to quantitatively detect metabolites produced by specific substrates, changes in CYP enzyme activity were determined, and IC50 value was calculated to evaluate the inhibitory potential of the test compound on each CYP enzyme subtype.

Test [3] relates to MCF-7 cells. As to the kind of experiment: Inhibitory effect of compounds on the proliferation of MCF-7 cells (CellTiter-Glo, 7 days). Format: cell-based. To be noted: Homo sapiens, MCF7, 168 h, 7 days incubation. As for the experimental part:
1. Inhibitory Effect of Compounds on the Proliferation of MCF-7 Cells
Breast cancer cells MCF-7 were purchased from ATCC, the cell media were all EMEM+10% FBS, and the cells were cultured in an incubator at 37° C. under 5% CO2. On the first day, cells in the exponential growth phase were collected and cultured in a 10% css-FBS phenol red-free medium without cytokines for 3 days. After the completion of culture, a 10% css-FBS phenol red-free medium was used to adjust the cell suspension to the corresponding concentration and same was plated to 1000 cells/well. P-estradiol and compounds of different concentrations were added. A plate without adding any reagent was taken and used as Day0 with a reading value RLUday0, determined with CellTiter-Glo kit, placed in an incubator and incubated for 7 days. After the incubation was completed, according to operation instructions for a CellTiter-Glo kit (Promega, G7573), 50 μL of CellTiter-Glo solutions, which were pre-melted and equilibrated to room temperature, were added to each well, and the mixtures were uniformly mixed for 2 min using a microplate shaker. The plate was placed at room temperature for 10 min, and then […] signal values were measured using a microplate reader (PHERAstar FSX). Chemiluminescence readouts were processed using origin9.2 software and the DoseResp function was used to calculate the GIsovalue for the inhibitory activity of compounds on the proliferation of cells (Table 1). The results were processed according to equation (1), the inhibition rate of the compound at different concentrations was calculated, and the GI50 value of the compound with a proliferation rate of 50% was calculated using origin9.2 software, wherein RLUcompound was the readout of the treated group, and RLUcontrol was the average value of the solvent control group.
Growth %=(RLUcompound−RLUday0)/(RLUcontrol−RLUday0)×100 equation (1)

Sequence of ERα (P03372 whole entry): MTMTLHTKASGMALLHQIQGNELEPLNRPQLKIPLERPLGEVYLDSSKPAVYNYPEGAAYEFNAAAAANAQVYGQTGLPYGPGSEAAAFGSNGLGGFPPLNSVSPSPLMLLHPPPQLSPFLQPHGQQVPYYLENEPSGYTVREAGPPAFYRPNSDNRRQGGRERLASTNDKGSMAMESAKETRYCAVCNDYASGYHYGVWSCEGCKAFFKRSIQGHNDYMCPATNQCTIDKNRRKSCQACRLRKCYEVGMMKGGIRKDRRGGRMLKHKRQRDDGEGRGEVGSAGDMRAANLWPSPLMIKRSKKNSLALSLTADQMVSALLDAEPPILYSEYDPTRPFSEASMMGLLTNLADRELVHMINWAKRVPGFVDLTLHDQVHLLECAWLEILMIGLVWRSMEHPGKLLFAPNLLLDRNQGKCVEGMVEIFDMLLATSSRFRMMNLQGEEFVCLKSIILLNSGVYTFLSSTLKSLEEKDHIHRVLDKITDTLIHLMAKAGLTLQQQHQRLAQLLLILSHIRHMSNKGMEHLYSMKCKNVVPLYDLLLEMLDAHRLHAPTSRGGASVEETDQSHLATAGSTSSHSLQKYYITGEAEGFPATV
Sequence of CYP2C19 (P33261 whole entry): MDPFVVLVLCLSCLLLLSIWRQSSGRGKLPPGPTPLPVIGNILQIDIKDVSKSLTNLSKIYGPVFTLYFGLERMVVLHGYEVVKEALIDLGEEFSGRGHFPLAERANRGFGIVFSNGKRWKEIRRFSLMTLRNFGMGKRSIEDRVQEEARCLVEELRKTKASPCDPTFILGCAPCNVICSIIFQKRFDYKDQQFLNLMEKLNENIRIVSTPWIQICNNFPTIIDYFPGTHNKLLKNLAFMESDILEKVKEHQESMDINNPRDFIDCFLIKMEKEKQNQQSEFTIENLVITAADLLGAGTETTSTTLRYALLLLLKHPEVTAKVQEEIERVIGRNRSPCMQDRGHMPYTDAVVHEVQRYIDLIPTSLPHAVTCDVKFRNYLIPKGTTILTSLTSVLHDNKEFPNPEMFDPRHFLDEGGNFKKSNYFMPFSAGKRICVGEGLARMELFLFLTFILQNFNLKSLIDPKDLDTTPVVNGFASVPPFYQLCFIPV

For `C[C@@H]1Cc2c([nH]c3ccc(F)cc23)[C@@H](c2c(F)cc(N[C@H]3CCN(CCCF)C3)cc2F)N1CC(F)(F)F` [Compound 18, (S)—N-(3,5-difluoro-4-((1R,3R)-6-fluoro-3-methyl-2-(2,2,2-trifluoroethyl)-2,3,4,9-tetrahydro-1H-pyrido[3,4-b]indol-1-yl)phenyl)-1-(3-fluoropropyl)pyrrolidin-3-amine], in test [1], the DC50 was 0.47 nM and the greatest degradation seen (Dmax) at 0.1 µM amounted to 70%.
The corresponding values for `C[C@@H]1Cc2c([nH]c3cc(F)ccc23)[C@@H](c2c(F)cc(N[C@H]3CCN(CCCF)C3)cc2F)N1CC(F)(F)F` [Compound 32, (S)—N-(3,5-difluoro-4-((1R,3R)-7-fluoro-3-methyl-2-(2,2,2-trifluoroethyl)-2,3,4,9-tetrahydro-1H-pyrido[3,4-b]indol-1-yl)phenyl)-1-(3-fluoropropyl)pyrrolidin-3-amine] are 1.23 nM and 88%.
`C#Cc1ccc2c3c([nH]c2c1)[C@@H](c1c(F)cc(N[C@H]2CCN(CCCF)C2)cc1F)N(CC(F)(F)F)[C@H](C)C3` [Compound 43, (S)—N-(4-((1R,3R)-7-ethynyl-3-methyl-2-(2,2,2-trifluoroethyl)-2,3,4,9-tetrahydro-1H-pyrido[3,4-b]indol-1-yl)-3,5-difluorophenyl)-1-(3-fluoropropyl)pyrrolidin-3-amine]: the 50% inhibitory concentration (IC50) in test [2] was more than 50000 nM. The molecule further returned a GI50 in test [3] of 0.219 nM.
